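Test compounds were applied to cells in 96-well plates for 48 hours at 5 doses. GI50: concentration for 50% inhibition of growth. Definition used: TGI = concentration required for complete inhibition of growth.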
Tests used:
Experiment in all cases: DTP human tumour cell line panel, 48 h
LOX IMVI melanoma = tested on: LOX IMVI melanoma
MCF7 breast = tested on: MCF7 breast
SK-MEL-5 melanoma = tested on: SK-MEL-5 melanoma
HT29 colon = tested on: HT29 colon
HCT-116 colon = tested on: HCT-116 colon
SF-539 CNS = tested on: SF-539 CNS
NCI-H460 lung = tested on: NCI-H460 lung
IGROV1 ovarian = tested on: IGROV1 ovarian
RXF 393 renal = tested on: RXF 393 renal
HL-60(TB) leukemia = tested on: HL-60(TB) leukemia
MDA-MB-231 breast = tested on: MDA-MB-231 breast
MDA-MB-435 = tested on: MDA-MB-435
OVCAR-3 ovarian = tested on: OVCAR-3 ovarian
SNB-75 CNS = tested on: SNB-75 CNS
786-0 renal = tested on: 786-0 renal
K-562 leukemia = tested on: K-562 leukemia
CAKI-1 renal = tested on: CAKI-1 renal
MALME-3M melanoma = tested on: MALME-3M melanoma
CCRF-CEM leukemia = tested on: CCRF-CEM leukemia
BT-549 breast = tested on: BT-549 breast
NCI/ADR-RES ovarian = tested on: NCI/ADR-RES ovarian
EKVX NSCLC = tested on: EKVX NSCLC
SF-295 CNS = tested on: SF-295 CNS
COLO 205 colon = tested on: COLO 205 colon
NCI-H226 lung = tested on: NCI-H226 lung
HS 578T breast = tested on: HS 578T breast
TK-10 renal = tested on: TK-10 renal
SN12C renal = tested on: SN12C renal
KM12 colon = tested on: KM12 colon
M14 melanoma = tested on: M14 melanoma
NCI-H23 lung = tested on: NCI-H23 lung
HOP-92 NSCLC = tested on: HOP-92 NSCLC
T-47D breast = tested on: T-47D breast
SF-268 CNS = tested on: SF-268 CNS
OVCAR-8 ovarian = tested on: OVCAR-8 ovarian
A549 NSCLC = tested on: A549 NSCLC
UACC-62 melanoma = tested on: UACC-62 melanoma
U251 CNS = tested on: U251 CNS
RPMI-8226 leukemia = tested on: RPMI-8226 leukemia
NCI-H522 lung = tested on: NCI-H522 lung
UO-31 renal = tested on: UO-31 renal
SK-OV-3 ovarian = tested on: SK-OV-3 ovarian
A498 renal = tested on: A498 renal
OVCAR-4 ovarian = tested on: OVCAR-4 ovarian
SNB-19 CNS = tested on: SNB-19 CNS
SK-MEL-28 melanoma = tested on: SK-MEL-28 melanoma
HOP-62 NSCLC = tested on: HOP-62 NSCLC
SK-MEL-2 melanoma = tested on: SK-MEL-2 melanoma
ACHN renal = tested on: ACHN renal
PC-3 prostate = tested on: PC-3 prostate
HCT-15 colon = tested on: HCT-15 colon
HCC-2998 colon = tested on: HCC-2998 colon
MOLT-4 leukemia = tested on: MOLT-4 leukemia
SW-620 colon = tested on: SW-620 colon
DU-145 prostate = tested on: DU-145 prostate
OVCAR-5 ovarian = tested on: OVCAR-5 ovarian

## N#Cc1c(-c2ccc(Cl)cc2)csc1NC(=O)Nc1ccc(Cl)c(C(F)(F)F)c1
LOX IMVI melanoma
  GI50: 1.14 µM
  TGI: 7.38 µM
MCF7 breast
  GI50: 0.229 µM
  TGI: 11.1 µM
SK-MEL-5 melanoma
  GI50: 0.639 µM
  TGI: 3.7 µM
HT29 colon
  GI50: 0.56 µM
  TGI: 3.54 µM
HCT-116 colon
  GI50: 0.224 µM
  TGI: 6.42 µM
SF-539 CNS
  GI50: 1.5 µM
  TGI: 6.96 µM
NCI-H460 lung
  GI50: 0.209 µM
  TGI: 1.2 µM
IGROV1 ovarian
  GI50: 0.626 µM
  TGI: 18.7 µM
RXF 393 renal
  GI50: 2.05 µM
  TGI: 17.4 µM
HL-60(TB) leukemia
  GI50: 0.793 µM
  TGI: 2.11 µM
MDA-MB-231 breast
  GI50: 0.995 µM
  TGI: 6.24 µM
MDA-MB-435
  GI50: 1.49 µM
  TGI: > 50 µM
OVCAR-3 ovarian
  GI50: 0.262 µM
  TGI: 1.47 µM
SNB-75 CNS
  GI50: 1.36 µM
  TGI: 7.72 µM
786-0 renal
  GI50: 3.18 µM
  TGI: 13.4 µM
K-562 leukemia
  GI50: 0.177 µM
  TGI: 6.27 µM
CAKI-1 renal
  GI50: 0.691 µM
  TGI: 5.57 µM
MALME-3M melanoma
  GI50: 1.01 µM
  TGI: 3.94 µM
CCRF-CEM leukemia
  GI50: 0.243 µM
  TGI: 7.67 µM
BT-549 breast
  GI50: 1.21 µM
  TGI: 4.54 µM
NCI/ADR-RES ovarian
  GI50: 0.536 µM
  TGI: 13.4 µM
EKVX NSCLC
  GI50: 0.385 µM
  TGI: > 50 µM
SF-295 CNS
  GI50: 0.326 µM
  TGI: 1.87 µM
COLO 205 colon
  GI50: 0.895 µM
  TGI: 2.58 µM
NCI-H226 lung
  GI50: 1.12 µM
  TGI: 12.4 µM
HS 578T breast
  GI50: 1.36 µM
  TGI: 8.24 µM
TK-10 renal
  GI50: 0.757 µM
  TGI: 11.1 µM
SN12C renal
  GI50: 0.348 µM
  TGI: > 50 µM
KM12 colon
  GI50: 0.251 µM
  TGI: 6.96 µM
M14 melanoma
  GI50: 1.14 µM
  TGI: 8.35 µM
NCI-H23 lung
  GI50: 0.201 µM
  TGI: 16.7 µM
HOP-92 NSCLC
  GI50: 0.222 µM
  TGI: 2.09 µM
T-47D breast
  GI50: 0.106 µM
  TGI: 0.696 µM
SF-268 CNS
  GI50: 1.29 µM
  TGI: 21.3 µM
OVCAR-8 ovarian
  GI50: 0.388 µM
  TGI: 15.7 µM
A549 NSCLC
  GI50: 0.63 µM
  TGI: 12.4 µM
UACC-62 melanoma
  GI50: 0.326 µM
  TGI: 8.64 µM
U251 CNS
  GI50: 0.607 µM
  TGI: 1.91 µM
RPMI-8226 leukemia
  GI50: 0.153 µM
  TGI: 1.14 µM
NCI-H522 lung
  GI50: 0.121 µM
  TGI: 0.55 µM
UO-31 renal
  GI50: 1.47 µM
  TGI: > 50 µM
SK-OV-3 ovarian
  GI50: 2.49 µM
  TGI: 14.4 µM
A498 renal
  GI50: 0.536 µM
  TGI: 5.68 µM
OVCAR-4 ovarian
  GI50: 0.691 µM
  TGI: 3.46 µM
SNB-19 CNS
  GI50: 1.27 µM
  TGI: 35.2 µM
SK-MEL-28 melanoma
  GI50: 1.85 µM
  TGI: 40.1 µM
HOP-62 NSCLC
  GI50: 1.01 µM
  TGI: 4.42 µM
SK-MEL-2 melanoma
  GI50: 0.872 µM
  TGI: 7.35 µM
ACHN renal
  GI50: 0.234 µM
  TGI: 5.18 µM
PC-3 prostate
  GI50: 0.161 µM
  TGI: 2.04 µM
HCT-15 colon
  GI50: 0.208 µM
  TGI: 5.4 µM
HCC-2998 colon
  GI50: 1.33 µM
  TGI: 17.1 µM
MOLT-4 leukemia
  GI50: 0.605 µM
  TGI: 5.06 µM
SW-620 colon
  GI50: 0.255 µM
  TGI: 2.95 µM
DU-145 prostate
  GI50: 0.527 µM
  TGI: 11.2 µM
OVCAR-5 ovarian
  GI50: 4.77 µM
  TGI: > 50 µM
